Reference: ChEMBL document CHEMBL1201862, “PubChem BioAssay data set” (2004)
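Five compound concentrations were applied to cells in 96-well plates for 48 hours; endpoints were derived by simple linear interpolation of the resulting dose-response curve. GI50 = concentration required for 50% inhibition of growth.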 Active and inactive are the calls of the source. Rule as the data show it: active = GI50 up to about 1.1 µM and inactive = higher. Peptide text beside a SMILES is read from it. * marks the point of attachment. Boc = CC(C)(C)OC(=O)*

What was measured:
Test in all cases: NCI anticancer screen, dose series, 48 h
U-251 = test system: U-251
A549 = test system: A549
EKVX = test system: EKVX
786-0 = test system: 786-0
KM12 = test system: KM12
LOX IMVI = test system: LOX IMVI
UO-31 = test system: UO-31
COLO 205 = test system: COLO 205
HCC 2998 = test system: HCC 2998
HCT-15 = test system: HCT-15
NCI-H460 = test system: NCI-H460
ACHN = test system: ACHN
HT-29 = test system: HT-29
LXFL 529 = test system: LXFL 529
OVCAR-5 = test system: OVCAR-5
M14 = test system: M14
CAKI-1 = test system: CAKI-1
MCF7 = test system: MCF7
MDA-MB-231 = test system: MDA-MB-231
DU-145 = test system: DU-145

Measured: GI50

CCOC(=O)C(=C=Cc1cccs1)C(=O)c1ccccc1
inactive: U-251 16.9 µM | A549 18.9 µM | EKVX 16.7 µM | 786-0 16 µM | KM12 12.3 µM | LOX IMVI 12.4 µM | UO-31 14.3 µM | COLO 205 17.6 µM | HCC 2998 17.4 µM | NCI-H460 20.4 µM | ACHN 18.8 µM | HT-29 19.4 µM | LXFL 529 14.9 µM | OVCAR-5 15.2 µM | M14 15 µM
16.6 µM: HCT-15

C=CCc1cc(-c2cc(CC=C)c(O)c(CNC)c2)cc(CNC)c1O
inactive: U-251 14.9 µM | A549 17.8 µM | 786-0 15.5 µM | KM12 16.6 µM | LOX IMVI 13.3 µM | UO-31 12.9 µM | COLO 205 18.5 µM | HCC 2998 16.3 µM | NCI-H460 16.3 µM | ACHN 17.8 µM | HT-29 15.3 µM | LXFL 529 15.2 µM | M14 15.6 µM
16.6 µM: HCT-15

COCN1CCN=c2c1c1c3c(c4ccccc4n23)CCC1
> 100 µM: HCT-15
inactive: U-251 > 100 µM | A549 > 100 µM | EKVX > 100 µM | 786-0 > 100 µM | KM12 > 100 µM | LOX IMVI > 100 µM | UO-31 > 100 µM | COLO 205 > 100 µM | CAKI-1 > 100 µM | HCC 2998 > 100 µM | MCF7 > 100 µM | NCI-H460 > 100 µM | ACHN > 100 µM | HT-29 > 100 µM | OVCAR-5 > 100 µM | MDA-MB-231 > 100 µM | DU-145 > 100 µM | M14 > 100 µM

C#CC1(O)CCC2[C@@H]3CCc4cc(Oc5nc(F)nc(-c6c(C)c(C(=O)OCC)n7ccccc67)n5)ccc4C3CC[C@@]21C (some centres not stated)
inactive: U-251 > 100 µM | A549 > 100 µM | EKVX > 100 µM | 786-0 > 100 µM | KM12 > 100 µM | LOX IMVI > 100 µM | UO-31 > 100 µM | COLO 205 > 100 µM | CAKI-1 > 100 µM | HCC 2998 > 100 µM | MCF7 > 100 µM | NCI-H460 > 100 µM | ACHN > 100 µM | HT-29 > 100 µM | OVCAR-5 > 100 µM | MDA-MB-231 > 100 µM | DU-145 > 100 µM | M14 > 100 µM
> 100 µM: HCT-15

COC(=O)C(Cc1ccccc1)NC(=O)C(CS)NC(=O)OC(C)(C)C (stereo not drawn) (Boc-Cys-Phe-OMe; configuration not given here)
inactive: U-251 > 100 µM | A549 > 100 µM | EKVX > 100 µM | 786-0 > 100 µM | KM12 94.4 µM | LOX IMVI 69.2 µM | UO-31 74.1 µM | COLO 205 > 100 µM | CAKI-1 > 100 µM | HCC 2998 > 100 µM | MCF7 73.5 µM | NCI-H460 > 100 µM | ACHN > 100 µM | HT-29 99.3 µM | OVCAR-5 > 100 µM | MDA-MB-231 26.9 µM | DU-145 > 100 µM | M14 > 100 µM
> 100 µM: HCT-15

CSc1ccc(/C=C2\N=C(c3ccccc3)N(c3nc4ccc(Sc5ccccc5)cc4[nH]3)C2=O)cc1
18.2 µM: HCT-15
inactive: U-251 16.7 µM | A549 35.5 µM | EKVX 31 µM | 786-0 13.9 µM | KM12 15.3 µM | LOX IMVI 17.6 µM | UO-31 18.3 µM | COLO 205 13.9 µM | CAKI-1 21.5 µM | HCC 2998 16.7 µM | MCF7 15.1 µM | NCI-H460 19.1 µM | ACHN 30.8 µM | HT-29 17.5 µM | OVCAR-5 26.2 µM | MDA-MB-231 18.3 µM | DU-145 27.6 µM | M14 15.3 µM

C=C(C)[C@@H]1C[C@H]2O[C@](O)(C(=C)CC(=O)/C=C(/C)C[C@@H]3OC(=O)[C@]24O[C@@H]34)[C@H]1O
inactive: U-251 > 100 µM | A549 > 100 µM | EKVX > 100 µM | 786-0 > 100 µM | KM12 > 100 µM | LOX IMVI > 100 µM | UO-31 > 100 µM | COLO 205 > 100 µM | CAKI-1 > 100 µM | HCC 2998 > 100 µM | MCF7 > 100 µM | NCI-H460 > 100 µM | ACHN > 100 µM | HT-29 > 100 µM | OVCAR-5 > 100 µM | MDA-MB-231 > 100 µM | DU-145 > 100 µM | M14 > 100 µM
> 100 µM: HCT-15

N#CC(C#N)=CNC(=S)Nc1ccc(S(=O)(=O)Nc2nccs2)cc1
> 100 µM: HCT-15
inactive: U-251 > 100 µM | A549 > 100 µM | EKVX > 100 µM | 786-0 > 100 µM | KM12 > 100 µM | LOX IMVI > 100 µM | UO-31 > 100 µM | COLO 205 > 100 µM | CAKI-1 > 100 µM | HCC 2998 > 100 µM | MCF7 > 100 µM | NCI-H460 > 100 µM | ACHN > 100 µM | HT-29 > 100 µM | OVCAR-5 > 100 µM | MDA-MB-231 > 100 µM | DU-145 > 100 µM | M14 > 100 µM

Cc1cccc2c1CC(C1OC(=O)c3c(C)cccc31)C2=O (configuration not stated)
inactive: U-251 > 100 µM | A549 > 100 µM | EKVX > 100 µM | 786-0 > 100 µM | KM12 > 100 µM | LOX IMVI 70.6 µM | UO-31 > 100 µM | COLO 205 > 100 µM | CAKI-1 > 100 µM | HCC 2998 > 100 µM | MCF7 > 100 µM | NCI-H460 > 100 µM | ACHN > 100 µM | HT-29 > 100 µM | OVCAR-5 > 100 µM | MDA-MB-231 > 100 µM | DU-145 > 100 µM | M14 > 100 µM
> 100 µM: HCT-15

O=C1CCC2C(O)c3cc4c(cc3C(c3ccc5c(c3)OCO5)N12)OCO4 (configuration not stated)
> 100 µM: HCT-15
inactive: U-251 26.1 µM | A549 > 100 µM | EKVX > 100 µM | 786-0 82 µM | KM12 > 100 µM | LOX IMVI > 100 µM | UO-31 59.7 µM | COLO 205 > 100 µM | CAKI-1 > 100 µM | HCC 2998 > 100 µM | MCF7 > 100 µM | NCI-H460 > 100 µM | ACHN > 100 µM | HT-29 > 100 µM | OVCAR-5 > 100 µM | MDA-MB-231 > 100 µM | DU-145 > 100 µM | M14 > 100 µM

O=c1[nH]cnc2c1ncn2[C@@H]1C[C@@H]1CO
inactive: U-251 > 100 µM | A549 > 100 µM | EKVX > 100 µM | 786-0 > 100 µM | KM12 > 100 µM | LOX IMVI > 100 µM | UO-31 > 100 µM | COLO 205 > 100 µM | CAKI-1 > 100 µM | HCC 2998 > 100 µM | MCF7 > 100 µM | NCI-H460 > 100 µM | ACHN > 100 µM | HT-29 > 100 µM | OVCAR-5 > 100 µM | MDA-MB-231 > 100 µM | DU-145 > 100 µM | M14 > 100 µM
> 100 µM: HCT-15

Cc1ccc(S(=O)(=O)NNC2(NS(=O)(=O)c3ccc(Cl)cc3)C(Cl)=C(Cl)C(=O)c3ccccc32)cc1 (configuration not stated)
inactive: U-251 21.8 µM | A549 16.9 µM | EKVX 15.5 µM | 786-0 14.1 µM | KM12 17.3 µM | LOX IMVI 23.5 µM | UO-31 26.8 µM | COLO 205 18.1 µM | CAKI-1 18.4 µM | HCC 2998 18.5 µM | MCF7 16.4 µM | NCI-H460 17.9 µM | ACHN 16.1 µM | HT-29 19.1 µM | OVCAR-5 18.3 µM | MDA-MB-231 19 µM | DU-145 18.5 µM | M14 19 µM
24.4 µM: HCT-15

CC(C)C[C@H](NC(=O)CCc1ccccc1)B(O)O
17.3 µM: HCT-15
inactive: U-251 31.4 µM | A549 35.4 µM | EKVX 42.1 µM | 786-0 12.3 µM | KM12 16.7 µM | LOX IMVI 4.63 µM | UO-31 15.8 µM | COLO 205 12.7 µM | CAKI-1 5.08 µM | HCC 2998 13.7 µM | MCF7 6.03 µM | NCI-H460 19 µM | ACHN 5.79 µM | HT-29 2.85 µM | OVCAR-5 13.6 µM | MDA-MB-231 17.7 µM | DU-145 60.8 µM | M14 12.1 µM

COC(=O)/C=C\C(C#N)(C#N)/N=C/c1ccsc1
1.55 µM: HCT-15
inactive: U-251 15.8 µM | A549 17.7 µM | EKVX 4.46 µM | 786-0 1.37 µM | KM12 14.5 µM | LOX IMVI 2.24 µM | UO-31 3.03 µM | COLO 205 1.37 µM | CAKI-1 2.26 µM | HCC 2998 16.1 µM | MCF7 1.88 µM | NCI-H460 17.3 µM | ACHN 1.42 µM | HT-29 4.18 µM | OVCAR-5 7.24 µM | MDA-MB-231 5.73 µM | DU-145 8.05 µM | M14 2.45 µM

COC(=O)c1ccc(OCCn2nnc(C(=O)NN)c2C(=O)NN)cc1
> 100 µM: HCT-15
inactive: U-251 > 100 µM | A549 > 100 µM | EKVX > 100 µM | 786-0 > 100 µM | KM12 > 100 µM | LOX IMVI > 100 µM | UO-31 > 100 µM | COLO 205 > 100 µM | CAKI-1 > 100 µM | HCC 2998 > 100 µM | MCF7 > 100 µM | NCI-H460 74 µM | ACHN > 100 µM | HT-29 > 100 µM | OVCAR-5 > 100 µM | MDA-MB-231 > 100 µM | DU-145 > 100 µM | M14 > 100 µM
